Data reported in patent publication US20100004238A1, “FUSED HETEROCYCLIC COMPOUND” (TAKEDA PHARMACEUTICAL COMPANY LIMITED, priority 2006, published 2010).
Counter-ions that a name gives are not always drawn.

Tests used:
[1] = target: T1, HER2 intracellular domain (HER2 kinase) (Homo sapiens, UniProt P04626); assay: Determination of HER2 kinase inhibitory activity; type: biochemical; conditions: compound at 1.0 μM, poly-Glu:Tyr (4:1) substrate, [γ-32P]ATP, read-out: inhibitory rate (%) at 1.0 μM
T1 construct: made in house; host or cells: SF-21 insect cells infected with recombinant baculovirus BAC-HER2
T1 sequence (P04626 676-1255): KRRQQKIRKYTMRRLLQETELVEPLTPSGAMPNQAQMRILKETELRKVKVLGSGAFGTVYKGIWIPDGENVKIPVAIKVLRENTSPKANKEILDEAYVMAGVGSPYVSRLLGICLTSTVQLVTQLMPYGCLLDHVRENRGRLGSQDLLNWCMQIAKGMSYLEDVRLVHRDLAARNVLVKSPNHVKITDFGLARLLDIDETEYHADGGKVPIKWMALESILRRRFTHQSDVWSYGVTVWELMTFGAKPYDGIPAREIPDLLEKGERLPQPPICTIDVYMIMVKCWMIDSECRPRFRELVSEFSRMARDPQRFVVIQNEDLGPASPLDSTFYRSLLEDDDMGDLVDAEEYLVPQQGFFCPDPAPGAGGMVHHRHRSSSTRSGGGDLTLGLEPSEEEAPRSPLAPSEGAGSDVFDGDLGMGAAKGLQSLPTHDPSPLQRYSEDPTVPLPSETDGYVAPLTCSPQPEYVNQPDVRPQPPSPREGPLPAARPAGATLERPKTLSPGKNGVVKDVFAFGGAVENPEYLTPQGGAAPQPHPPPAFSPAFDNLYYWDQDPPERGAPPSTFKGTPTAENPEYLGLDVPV
Method: Human HER2 gene was cloned by RT-PCR using total RNA prepared from MCF7 cells as a template. The primer used for RT-PCR was prepared in consideration of the information of nucleotide sequence (Genbank Accession No. M11730) of HER2 gene by adding a nucleotide sequence encoding DYKDDDD peptide and a restriction enzyme recognition sequence to a nucleotide sequence (corresponding to 2176-3918 of Genbank Accession No. M11730 as a base, 676-1255 amino acids of Genbank Accession No. NP_004439 as a protein) encoding the HER2 intracellular domain region such that the protein contains an N-terminal DYKDDDD peptide tag. The primer nucleotide sequence is shown below.
SF-21 cells were sown at 1×10^6 cells/mL in Sf-900II SFM medium (1 L, Invitrogen) containing 10% fetal bovine serum (trace), 50 mg/L gentamicin (Invitrogen) and 0.1% Pluronic F-68 (Invitrogen), and shaking culture was performed using a 2 L volume Erlenmeyer flask at 27° C., 100 rpm. After culturing for 24 hr, recombinant baculovirus BAC-HER2 (13.4 mL) was added, and the mixture was further cultured for 3 days. The culture medium was centrifuged at 2,000 rpm for 5 min to give virus-infected cells. The infected cells were washed with a phosphate buffered saline (Invitrogen), centrifuged under the same conditions, and the cells were preserved at −80° C. The cryopreserved cells were thawed in ice, suspended in buffer A (50 mM Tris buffer (30 mL, pH 7.4) containing 20% glycerol, 0.15 M NaCl) supplemented with Complete Protease Inhibitor (Boehringer), and ruptured 3 times with a Polytron homogenizer (Kinematica) at 20,000 rpm for 30 sec. The ruptured solution was clarified by centrifugation at 40,000 rpm for 30 min, and filtered with a 0.45 μm filter. The filtrate was passed through a column packed with Anti-FLAG M2 Affinity Gel (4 mL, Sigma-Aldrich) at a flow rate of about 0.5 mL/min. The column was washed with buffer A, and eluted with buffer A containing 100 μg/mL of FLAG peptide. The eluent was concentrated with Vivaspin 20 (Vivascience) having a molecular weight cut off of 30K. The concentrate was purified by gel filtration using Hi Load 16/60 Superdex 200 pg (GE Healthcare Bioscience) equilibrated with buffer A. The fractions containing HER2 intracellular domain were collected and cryopreserved at −80° C.
HER2 kinase reaction was performed using a 96 well plate. As a buffer for kinase reaction, a buffer having a composition of 50 mM Tris-HCl (pH 7.5), 5 mM MnCl2, 2 mM dithiothreitol, 0.01% Tween-20 was used. The compound of the present invention was dissolved in dimethyl sulfoxide (DMSO), and diluted with the kinase reaction buffer so that DMSO concentration would be 0.1% during kinase reaction. This compound solution (10 μL) was mixed with a kinase reaction buffer […] containing HER2 intracellular domain (0.625 μg/mL) obtained in Experimental Example 1B and polypeptide substrate poly-Glu:Tyr (4:1) (Sigma Ltd., 12.5 μg/mL), and the mixture was stood at room temperature for 5 min. Then, a kinase reaction buffer (20 μL) containing 125 μM ATP and 45 μCi/mL [γ-^32P]ATP was added, and the kinase reaction was initiated with 50 μL of the final reaction mixture. A kinase reaction was performed at room temperature for 10 min, and the kinase reaction was quenched by addition of 20% TCA solution (50 μL). The mixture after completion of the reaction was stood at room temperature for 30 min, and acid insoluble fractions in the mixture after completion of the reaction were collected in a 96 well GF/C filter plate (PerkinElmer) using a cell harvester (PerkinElmer). Thereafter, the filter containing the acid insoluble fractions was washed with 3% phosphoric acid solution. After washing, the filter plate was dried at 45° C. for 60 min, and 25 μL of MicroScinti 0 (PerkinElmer) was added. The radioactivity was measured using TopCount (PerkinElmer). HER2 kinase inhibitory rate (%) of the test compound was calculated by the following formula: […]

[2] = system: human breast cancer cell BT-474; assay: Inhibitory action on breast cancer cell BT-474 proliferation in vitro; type: cell-based; conditions: 120 h, BT-474 cells, cultured for 5 days with compound, SRB protein content
Method: A suspension of human breast cancer cell BT-474 (100 μl (6,000 cells)) were plated in a 96-well microplate and cultured in an incubator (37° C., 5% carbon dioxide). On the following day, 100 μl of a solution of each test compound previously diluted serially in 2-fold, was added, and the cells were cultured for 5 days. After the culture medium containing the test compound was removed, the cells were washed and fixed with 50% trichloroacetic acid, after which a 0.4% (w/v) SRB dye solution (dissolved in 1% acetic acid) was added to stain as well as fix the cell protein (Skehan et al., Journal of the National Cancer Institute, Vol. 82, pp. 1107-1112, 1990). After washing with a 1% acetic acid solution, 100 μl of extract solution (10 mM, Tris buffer) was added to extract the dye and the absorbance was measured at a wavelength of 550 nm to quantify the amount of cells as protein content. Taking as 100% the protein content for the control group, which received no test compound solution, the ratio of the residual protein content for each treatment group was determined, and the compound concentration required to achieve 50% suppression of the residual cell content relative to the control (IC50 value) was calculated.

Q: How did the inhibition at 1 µM [1] turn out when `OCCn1ccc2ncnc(Nc3ccc(Oc4cccc5[nH]ccc45)c(Cl)c3)c21` [Example 10, 2-(4-{[3-chloro-4-(1H-indol-4-yloxy)phenyl]amino}-5H-pyrrolo[3,2-d]pyrimidin-5-yl)ethanol] was run?
A: The inhibition at 1 µM was 99%.

Q: And the IC50 [2]?
A: Its IC50 is less than 100 nM.

Q: For `CC(C)(CO)C(=O)NCCn1ccc2ncnc(Nc3ccc(Oc4ccn5ncnc5c4)c(Cl)c3)c21` [Example 166, N-[2-(4-{[3-chloro-4-([1,2,4]triazolo[1,5-a]pyridin-7-yloxy)phenyl]amino}-5H-pyrrolo[3,2-d]pyrimidin-5-yl)ethyl]-3-hydroxy-2,2-dimethylpropanamide], which IC50 [2] is on record?
A: Its IC50 is less than 100 nM.

Q: Which inhibition at 1 µM [1] does the source give for `CC(C)(C)NC(=O)c1cccc(Oc2ccc(Nc3ncnc4ccn(CCO)c34)cc2Cl)n1` [Example 29, N-(tert-butyl)-6-(2-chloro-4-{[5-(2-hydroxyethyl)-5H-pyrrolo[3,2-d]pyrimidin-4-yl]amino}phenoxy)pyridine-2-carboxamide] here?
A: The inhibition at 1 µM was 100%.

Q: For `CC(C)(CO)C(=O)NCCn1ccc2ncnc(Nc3ccc(Oc4cccc5sccc45)c(Cl)c3)c21` [Example 114, N-[2-(4-{[4-(1-benzothiophen-4-yloxy)-3-chlorophenyl]amino}-5H-pyrrolo[3,2-d]pyrimidin-5-yl)ethyl]-3-hydroxy-2,2-dimethylpropanamide], which IC50 [2] is on record?
A: The IC50 was less than 100 nM.

Q: `O=C1Cc2c(cccc2Oc2ccc(Nc3ncnc4ccn(CCO)c34)cc2Cl)N1` [Example 28, 4-(2-chloro-4-{[5-(2-hydroxyethyl)-5H-pyrrolo[3,2-d]pyrimidin-4-yl]amino}phenoxy)-1,3-dihydro-2H-indol-2-one] was tested. Which inhibition at 1 µM [1] did it give?
A: The inhibition at 1 µM was 100%.

Q: What about the IC50 [2] of the same compound?
A: Its IC50 is less than 100 nM.

Q: Which inhibition at 1 µM [1] does the source give for `OCCn1ccc2ncnc(Nc3ccc(Oc4cccc5[nH]ncc45)c(Cl)c3)c21` [Example 95, 2-(4-{[3-chloro-4-(1H-indazol-4-yloxy)phenyl]amino}-5H-pyrrolo[3,2-d]pyrimidin-5-yl)ethanol] here?
A: Its inhibition at 1 µM is 100%.

Q: What about the IC50 [2] of the same compound?
A: Its IC50 is less than 100 nM.

Q: Which inhibition at 1 µM [1] does the source give for `CC(C)(CO)C(=O)NCCn1ccc2ncnc(Nc3ccc(Oc4ccn5ccnc5c4)c(Cl)c3)c21` [Example 164, N-[2-(4-{[3-chloro-4-(imidazo[1,2-a]pyridin-7-yloxy)phenyl]amino}-5H-pyrrolo[3,2-d]pyrimidin-5-yl)ethyl]-3-hydroxy-2,2-dimethylpropanamide] here?
A: The inhibition at 1 µM was 100%.

Q: With `Cn1ccc2ncnc(Nc3ccc(Oc4cccc5[nH]ncc45)c(Cl)c3)c21` [Example 86, N-[3-chloro-4-(1H-indazol-4-yloxy)phenyl]-5-methyl-5H-pyrrolo[3,2-d]pyrimidin-4-amine] as the compound, how does the IC50 [2] read?
A: The IC50 was less than 100 nM.

Q: How did the inhibition at 1 µM [1] turn out when `CC(C)(CO)C(=O)NCCn1ccc2ncnc(Nc3ccc(Oc4ccc5ccnn5c4)c(Cl)c3)c21` [Example 159, N-[2-(4-{[3-chloro-4-(pyrazolo[1,5-a]pyridin-6-yloxy)phenyl]amino}-5H-pyrrolo[3,2-d]pyrimidin-5-yl)ethyl]-3-hydroxy-2,2-dimethylpropanamide methanesulfonate] was run?
A: Its inhibition at 1 µM is 100%.

Q: Which inhibition at 1 µM [1] does the source give for `CC(C)(C)NC(=O)c1cncc(Oc2ccc(Nc3ncnc4ccn(CCO)c34)cc2Cl)c1` [Example 26, N-(tert-butyl)-5-(2-chloro-4-{[5-(2-hydroxyethyl)-5H-pyrrolo[3,2-d]pyrimidin-4-yl]amino}phenoxy)nicotinamide] here?
A: The inhibition at 1 µM was 100%.

Q: And the IC50 [2]?
A: The IC50 was less than 100 nM.

Q: `CC(C)(CO)C(=O)NCCn1ccc2ncnc(Nc3ccc(Oc4cccc5sccc45)c(Cl)c3)c21` [Example 127, N-[2-(4-{[4-(1-benzothiophen-4-yloxy)-3-chlorophenyl]amino}-5H-pyrrolo[3,2-d]pyrimidin-5-yl)ethyl]-3-hydroxy-2,2-dimethylpropanamide tosylate] was tested. Which inhibition at 1 µM [1] did it give?
A: Its inhibition at 1 µM is 99%.

Q: How did the IC50 [2] turn out when `CC(C)(O)CC(=O)NCCn1ccc2ncnc(Nc3ccc(Oc4ccc5ccnn5c4)c(Cl)c3)c21` [Example 147, N-[2-(4-{[3-chloro-4-(pyrazolo[1,5-a]pyridin-6-yloxy)phenyl]amino}-5H-pyrrolo[3,2-d]pyrimidin-5-yl)ethyl]-3-hydroxy-3-methylbutanamide hydrochloride] was run?
A: Its IC50 is less than 100 nM.

Q: Which inhibition at 1 µM [1] does the source give for `OCCn1ccc2ncnc(Nc3ccc(Oc4cccc5sccc45)c(Cl)c3)c21` [Example 83, 2-(4-{[4-(1-benzothiophen-4-yloxy)-3-chlorophenyl]amino}-5H-pyrrolo[3,2-d]pyrimidin-5-yl)ethanol] here?
A: The inhibition at 1 µM was 99%.

Q: `CN1C(=O)Cc2c(Oc3ccc(Nc4ncnc5cc(Cl)n(CCO)c45)cc3Cl)cccc21` [Example 170, 4-(2-chloro-4-{[6-chloro-5-(2-hydroxyethyl)-5H-pyrrolo[3,2-d]pyrimidin-4-yl]amino}phenoxy)-1-methyl-1,3-dihydro-2H-indol-2-one] was tested. Which inhibition at 1 µM [1] did it give?
A: Its inhibition at 1 µM is 97%.
